Results taken from the NIST ThermoML archive (doi:10.1021/je1012857).

Test: xn = mol fraction of the nth substance listed
Details: 101 kPa, Liquid; for speed of sound: Sing-around technique in a fixed-path interferometer; for viscosity: Capillary tube (Ostwald / Ubbelohde) method

NCCN [ethane-1,2-diamine] + CC(C)O
Details | mass density [kg/m3] | speed of sound [m/s] | viscosity [mPa·s]
293.15 K, x1 = 0.0557 | 793.696 | 1187.2 | –
293.15 K, x1 = 0.1036 | 800.705 | 1213.8 | –
293.15 K, x1 = 0.156 | 807.902 | 1241.5 | –
293.15 K, x1 = 0.2011 | 813.922 | 1265.8 | –
293.15 K, x1 = 0.2548 | 820.862 | 1295.1 | –
293.15 K, x1 = 0.3018 | 826.514 | 1320.2 | –
293.15 K, x1 = 0.3892 | 836.546 | 1366.4 | –
293.15 K, x1 = 0.5109 | 849.474 | 1430.5 | –
293.15 K, x1 = 0.605 | 858.745 | 1478.9 | –
293.15 K, x1 = 0.6988 | 868.4 | 1530.6 | –
293.15 K, x1 = 0.7969 | 878.278 | 1584.3 | –
293.15 K, x1 = 0.8369 | 881.835 | 1605.3 | –
293.15 K, x1 = 0.8931 | 887.269 | 1635.6 | –
293.15 K, x1 = 0.9409 | 892.34 | 1662.9 | –
298.15 K, x1 = 0.0557 | 789.425 | 1169.4 | 2.034
298.15 K, x1 = 0.1036 | 796.388 | 1195.9 | 2.017
298.15 K, x1 = 0.156 | 803.523 | 1223.4 | 1.997
298.15 K, x1 = 0.2011 | 809.506 | 1247.6 | 1.978
298.15 K, x1 = 0.2548 | 816.397 | 1276.6 | 1.962
298.15 K, x1 = 0.3018 | 822.019 | 1301.6 | 1.936
298.15 K, x1 = 0.3892 | 832.023 | 1347.5 | 1.886
298.15 K, x1 = 0.5109 | 844.925 | 1410.9 | 1.796
298.15 K, x1 = 0.605 | 854.173 | 1458.9 | 1.725
298.15 K, x1 = 0.6988 | 863.796 | 1510 | 1.637
298.15 K, x1 = 0.7969 | 873.662 | 1563.2 | 1.543
298.15 K, x1 = 0.8369 | 877.194 | 1583.7 | 1.511
298.15 K, x1 = 0.8931 | 882.613 | 1613.9 | 1.469
298.15 K, x1 = 0.9409 | 887.669 | 1640.7 | 1.438
303.15 K, x1 = 0.0557 | 785.1 | 1151.7 | 1.761
303.15 K, x1 = 0.1036 | 792.016 | 1178 | 1.746
303.15 K, x1 = 0.156 | 799.108 | 1205.3 | 1.733
303.15 K, x1 = 0.2011 | 805.044 | 1229.4 | 1.718
303.15 K, x1 = 0.2548 | 811.904 | 1258.2 | 1.698
303.15 K, x1 = 0.3018 | 817.496 | 1283 | 1.675
303.15 K, x1 = 0.3892 | 827.475 | 1328.5 | 1.629
303.15 K, x1 = 0.5109 | 840.354 | 1391.5 | 1.558
303.15 K, x1 = 0.605 | 849.588 | 1439 | 1.496
303.15 K, x1 = 0.6988 | 859.186 | 1489.5 | 1.429
303.15 K, x1 = 0.7969 | 869.028 | 1542.1 | 1.357
303.15 K, x1 = 0.8369 | 872.546 | 1562.4 | 1.331
303.15 K, x1 = 0.8931 | 877.945 | 1592.1 | 1.298
303.15 K, x1 = 0.9409 | 882.985 | 1618.7 | 1.271
308.15 K, x1 = 0.0557 | 780.72 | 1134 | 1.555
308.15 K, x1 = 0.1036 | 787.599 | 1160.1 | 1.543
308.15 K, x1 = 0.156 | 794.649 | 1187.3 | 1.528
308.15 K, x1 = 0.2011 | 800.552 | 1211.2 | 1.516
308.15 K, x1 = 0.2548 | 807.374 | 1239.8 | 1.497
308.15 K, x1 = 0.3018 | 812.943 | 1264.5 | 1.48
308.15 K, x1 = 0.3892 | 822.898 | 1309.7 | 1.44
308.15 K, x1 = 0.5109 | 835.76 | 1372.1 | 1.375
308.15 K, x1 = 0.605 | 844.983 | 1419.1 | 1.322
308.15 K, x1 = 0.6988 | 854.563 | 1469.1 | 1.266
308.15 K, x1 = 0.7969 | 864.38 | 1521.1 | 1.205
308.15 K, x1 = 0.8369 | 867.885 | 1541.2 | 1.183
308.15 K, x1 = 0.8931 | 873.264 | 1570.6 | 1.152
308.15 K, x1 = 0.9409 | 878.288 | 1596.8 | 1.129
313.15 K, x1 = 0.0557 | 776.266 | 1116.4 | –
313.15 K, x1 = 0.1036 | 783.114 | 1142.2 | –
313.15 K, x1 = 0.156 | 790.129 | 1169.4 | –
313.15 K, x1 = 0.2011 | 796.005 | 1193.2 | –
313.15 K, x1 = 0.2548 | 802.798 | 1221.6 | –
313.15 K, x1 = 0.3018 | 808.346 | 1246.1 | –
313.15 K, x1 = 0.3892 | 818.281 | 1291.2 | –
313.15 K, x1 = 0.5109 | 831.131 | 1353.4 | –
313.15 K, x1 = 0.605 | 840.349 | 1399.4 | –
313.15 K, x1 = 0.6988 | 849.909 | 1449.1 | –
313.15 K, x1 = 0.7969 | 859.706 | 1500.5 | –
313.15 K, x1 = 0.8369 | 863.196 | 1520.3 | –
313.15 K, x1 = 0.8931 | 868.56 | 1549.4 | –
313.15 K, x1 = 0.9409 | 873.569 | 1575.4 | –
